Data from patent US5859032A, “Pyridine derivative, anti-ulcer drug, and antibacterial drug” (priority 1996, dated 1999).

What was measured:
[1] = test system: stress ulcer formation (rats); assay: WIS: Restraint and Water Immersion Stress-Induced Ulcer Inhibition Test; format: in vivo, rat (male Crj:SD or Slc:SD); conditions: rat, 100 mg/kg, oral, 7 hours water immersion stress
Procedure: WIS: Restraint and Water Immersion Stress-Induced Ulcer Inhibition Test
The degree of inhibition of the stress ulcer formation is tested.
Male Crj:SD or Slc:SD rats (6 to 7-week-old) were fasted overnight, but allowed free access to water. Each group has 5 to 8 of these rats. […] To a control group, the vehicle was administered. 10 minutes later, the rats were placed in a stress cage and immersed to the level of xipfoid process in a water bath (21° C.) for 7 hours. At the end of the stress, the rats were sacrificed by inhalation of ether or carbon dioxide. Then, the stomach of each was removed, inflated by injecting 10 ml of 5% formalin neutral buffer solution, and immersed in 1% formalin neutral buffer solution for 30 minutes or more to be fixed. The stomach was incised along the greater curvature and then the length of each erosion in the glandular portion was determined under dissecting microscope. The sum of the length of erosions per stomach was defined as ulcer index (UI).
The effect obtained when 100 mg/kg of the sample compound had been administered was expressed as ulcer formation inhibitory rate (%) as follows:
ulcer formation inhibitory rate (%)=(1-(UI in sample group/UI in control

[2] = MTT: Cell Damaging and Protecting Effect Test; format: cell-based, Japanese White rabbit; conditions: rabbit, gastric mucosa cells, 10^-4 M, 37° C., smaller value is better, read-out: MTT: cell damaging rate
From the text: MTT: Cell Damaging and Protecting Effect Test
It is confirmed that there is no toxicity in cell level. Those having a toxicity in cell level are inappropriate as an anti-ulcer drug.
A male Japanese White rabbit (2.5 to 3 kg) was anesthetized to death by Nembutal™ and, immediately thereafter, its stomach was removed. The greater curvature of the stomach was incised so as to remove the stomach contents therefrom. After the mucosal surface was washed with HBSS (Hanks' Balanced Salt Solution), the stomach in ice-cooled HBSS was transferred to a laboratory. Then, after the pyloric antrum was removed, the gastric corpus mucosa was separated by a spatula and then minced into 2 to 3 mm^3 pieces in BME (Basal Medium Eagle). Thereafter, these pieces were shaken at 120 to 130 cycles/minute for 15 minutes at 37° C. in BME 60 ml containing 280 U/ml of dispase and 30 to 50 U/ml of collagenase. Here, the concentration of collagenase was appropriately changed for each lot in view of the state of cells. The pieces were washed twice with EBSS (Earle's Balanced Salt Solution) containing 1 mM of EDTA and then shaken in MEM (Minimum Essential Medium) containing 1 mM of EDTA at 37° C. for 5 minutes. Subsequently, they were shaken in the dispase and collagenase having the same concentrations as those mentioned above for 15 minutes so as to remove the supernatant and then further shaken at 37° C. for 50 to 60 minutes at 120 to 130 cycles/minute. Then, after being washed twice with HBSS, Ham F12 containing 2% of Ultrocer GT™ was used to attain the concentration of 1×10^6 cells/ml. Thus formed suspension was dispensed in each well of a 96-well plate by 200 μl. The plate was incubated in the atmosphere composed of 5% CO2 and 95% air at 37° C. for three days so as to attain a confluent state and then subjected to MTT assay.
The sample compound was dissolved in DMSO so as to attain a concentration of 10^-2 M and then diluted with HBSS containing 2% of Ultrocer G™ so as to attain a final concentration of 10^-4 M. To each group, which 8 wells were used for, 10 μl of MTT reagent was added immediately after 100 μl of the medium in each well was exchanged for same volume of the resulting solution of the sample compound. After being incubated in an atmosphere composed of 5% CO2 and 95% air at 37° C. for 4 hours, thus formed solution was centrifuged and then its supernatant was discarded. Subsequently, 100 μl of 100% ethanol was added to the residue so as to dissolve MTT formazan. Then, the absorbance (OD: 570 to 630) was measured by a microplate reader. This method utilizes a phenomenon in which MTT is changed to MTT formazan only by mitochondria of living cells so as to change color.
The cell damaging or cell protecting effect of the sample compound at the final concentration of 10^-4 M was expressed as cell damaging rate (%) as follows:
cell damaging rate (%)=(1-(absorbance in sample group/absorbance in control
Accordingly, the smaller value is better in the cell damaging rate.

mice = conditions: mouse, in vivo
Procedure: AT: Single Dose Toxicity Pretest
Male Slc:ICR mice (5-week-old) were used. Each group has 3 to 5 mice and each mouse was fasted, but allowed free access to water, for 4 to 5 hours from 9 a.m. in the test day. Then, 2,000 mg/10 ml/kg of the sample compound dissolved or suspended in an aqueous solution of 0.5% sodium carboxymethyl cellulose was orally administered thereto. To a control, only the vehicle was administered. […] The body weight was measured before and after the fasting as well as at the same time everyday. The dead animals were immediately subjected to autopsy and their organs were observed microscopically. Also, the living animals were sacrificed with ether or carbon dioxide one week after the administration and then their organs were observed microscopically.
The toxicity at the single dose of 2,000 mg/kg of the sample compound was expressed as being classified into 5 levels.
5: Mortality rate is 0%; no toxicity is found at all both in behavior and organs.
4: Mortality rate is 0%; while no toxicity is found in organs, slight toxicity is observed in behavior and body weight increase.
3: While there is a dead animal (though not all the animals are dead), no toxicity is found in organs.
2: Regardless of whether there is a dead animal or not, toxicity is found in organs.
1: All the animals are dead.

| Structure (SMILES) | WIS: ulcer formation inhibitory rate [1] [%] | cytotoxicity at 4 h, 100 µM [2] [%] | AT: toxicity at the single dose (5 levels) (mice) |
| --- | --- | --- | --- |
| CC(C)=CCC/C(C)=C/COc1ccc(C(=O)NCCc2ccccn2)cc1 [Example 1, 2-[2-(4-geranyloxybenzoylamino)ethyl]pyridine] | 50 | 8 | 5 |
| CC(C)=CCC/C(C)=C/COc1ccc(C(=O)NCCc2ccncc2)cc1 [Example 2, 4-[2-(4-geranyloxybenzoylamino)ethyl]pyridine] | 77 | 7 | 5 |
| CC(C)=CCC/C(C)=C/COc1ccc(C(=O)NCc2ccncc2)cc1 [Example 3, 4-(4-geranyloxybenzoylaminomethyl)pyridine] | 61 | 16 | 5 |
| CC(C)=CCC/C(C)=C/COc1ccc(C(=O)Nc2cccnc2)cc1 [Example 4, 3-(4-geranyloxybenzoylamino)pyridine] | 39 | 6 | – |
| CC(C)=CCOc1ccc(OCC=C(C)C)c(C(=O)NCCc2ccncc2)c1 [Example 6, 4-[2-(2,5-diprenyloxybenzoylamino)ethyl]pyridine] | 48 | -94 | – |
| CC(C)=CCC/C(C)=C/COc1ccc(C(=O)NCCNc2cccnc2)cc1 [Example 7, 3-[2-(4-geranyloxybenzoylamino)ethylamino]pyridine] | 81 | 48 | – |
| COc1ccc(NCCNC(=O)c2ccc(OC/C=C(\C)CCC=C(C)C)cc2)nc1 [Example 8, 2-[2-(4-geranyloxybenzoylamino)ethylamino]-5-methoxypyridine] | 55 | -45 | 5 |
| CC(C)=CCC/C(C)=C/COc1ccc(C(=O)NCCNc2cc(C)cc(C)n2)cc1 [Example 10, 2,4-dimethyl-6-[2-(4-geranyloxybenzoylamino)ethylamino]pyridine] | 55 | 65 | 4 |
| COc1ccc(SCCNC(=O)c2ccc(OC/C=C(\C)CCC=C(C)C)cc2)nc1 [Example 11, 2-[2-(4-geranyloxybenzoylamino)ethylthio]-5-methoxypyridine] | 61 | -34 | 5 |
| CC(C)=CCC/C(C)=C/COc1ccc(C(=O)NCC(=O)Nc2ccccn2)cc1 [Example 13, 2-[2-(4-geranyloxybenzoylamino)acetylamino]pyridine] | 33 | -36 | 5 |
